Reference: patent US6900193B1, “Structural modification of 19-norprogesterone I: 17-α-substituted-11-β-substituted-4-aryl and 21-substituted 19-norpregnadienedione as new antiprogestational agents” (The United States of America as represented by the …, priority 1996, dated 2005)
Marks after values point to notes of the source that are not given here.

Key:
[1] = system: progesterone-induced endometrial proliferation; test: AntiMcGinty test; type: in vivo, rabbit; details: for ANTIPROGESTATIONAL Anti-McGinty: relative potency, CDB-2914 = 100 (assigned), intraluminal, rabbit
Method: AntiMcGinty Test (McGinty, et al., Endocrinology, 24:829-832 (1939))
Immature female rabbits of the New Zealand White breed (approx. 1 kg body weight) were maintained under standard laboratory conditions and received a subcutaneous injection of 5 μg estradiol in 10% ethanol/sesame oil daily for 6 consecutive days. Twenty-four hours after the last injection of estradiol (day 7) animals underwent sterile abdominal surgery to ligate a 3-4 cm segment of both uterine horns. The experimental compound in appropriate solvent (usually 10% ethanol/sesame oil) was injected intraluminally into the ligated segment of one uterine horn and the vehicle alone into the ligated segment of the contralateral horn. Injection volume was limited to 0.1 ml, and care was taken to prevent leakage. A stimulating dose of progesterone (0.8 mg/day) was administered subcutaneously to each rabbit daily for the next three days (days 7, 8 and 9) for the purpose of inducing endometrial proliferation. All animals were sacrificed on day 10 when a segment central to the ligatures was removed and fixed in 10% neutral buffered formalin and submitted for histological processing. Five micron sections stained with hematoxylin and eosin (H&E) were evaluated microscopically for the degree of endometrial glandular proliferation according to the method of McPhail (McPhail, J. Physiol., 83:145 (1934). The percent inhibition of endometrial proliferation for each rabbit was calculated and the mean of the group of five animals recorded.

[2] = target: T1, progesterone receptor (estrogen-primed rabbit uterus) (Oryctolagus cuniculus, UniProt P06186); test: Relative binding affinity, progesterone receptor; details: for RELATIVE BINDING AFFINITY Progesterone / BINDING AFFINITY Progester: estrogen-primed rabbit uterus, progesterone = 100%; for binding affinities compared with the standard, compound 69B: progesterone receptor implied (rabbit or human isoform A not specified); for BINDING AFFINITY Progester: Table 2
T1 construct: preparation of cytosols for the progesterone and glucocorticoid receptor assays; from tissue; host or cells: uterus of estradiol-primed immature female New Zealand White rabbits (cytosol)
T1 sequence (P06186 1-930): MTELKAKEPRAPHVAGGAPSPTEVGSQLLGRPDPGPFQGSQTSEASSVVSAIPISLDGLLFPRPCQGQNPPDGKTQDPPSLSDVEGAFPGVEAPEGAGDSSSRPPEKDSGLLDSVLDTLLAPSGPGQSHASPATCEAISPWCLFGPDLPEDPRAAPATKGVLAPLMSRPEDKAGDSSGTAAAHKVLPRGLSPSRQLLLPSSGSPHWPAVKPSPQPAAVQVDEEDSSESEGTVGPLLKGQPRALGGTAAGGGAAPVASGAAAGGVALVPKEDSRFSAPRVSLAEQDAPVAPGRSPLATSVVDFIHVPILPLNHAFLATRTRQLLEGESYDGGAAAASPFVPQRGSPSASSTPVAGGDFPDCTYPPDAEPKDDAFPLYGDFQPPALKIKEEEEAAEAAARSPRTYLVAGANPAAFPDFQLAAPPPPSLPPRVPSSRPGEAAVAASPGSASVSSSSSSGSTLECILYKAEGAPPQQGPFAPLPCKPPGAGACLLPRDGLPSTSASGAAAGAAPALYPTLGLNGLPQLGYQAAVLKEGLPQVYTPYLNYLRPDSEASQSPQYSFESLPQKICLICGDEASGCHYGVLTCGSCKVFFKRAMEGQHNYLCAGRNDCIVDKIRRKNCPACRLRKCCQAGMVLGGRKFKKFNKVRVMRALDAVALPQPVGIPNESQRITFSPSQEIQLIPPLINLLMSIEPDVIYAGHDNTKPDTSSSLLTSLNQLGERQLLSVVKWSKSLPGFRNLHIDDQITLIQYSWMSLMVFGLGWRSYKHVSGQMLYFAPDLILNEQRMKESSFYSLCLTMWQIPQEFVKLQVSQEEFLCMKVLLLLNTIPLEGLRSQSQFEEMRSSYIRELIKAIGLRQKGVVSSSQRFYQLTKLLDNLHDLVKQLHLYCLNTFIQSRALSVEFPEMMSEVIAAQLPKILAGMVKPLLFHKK

[3] = target: T2, glucocorticoid receptor (estrogen-primed rabbit thymus) (Oryctolagus cuniculus, UniProt P59667); test: Relative binding affinity, glucocorticoid receptor; details: estrogen-primed rabbit thymus, dexamethasone = 100%; for BINDING AFFINITY Glucocortic: Table 2
T2 construct: preparation of cytosols for the progesterone and glucocorticoid receptor assays; from tissue; host or cells: thymus of estradiol-primed immature female New Zealand White rabbits (cytosol)
T2 sequence (P59667 1-772): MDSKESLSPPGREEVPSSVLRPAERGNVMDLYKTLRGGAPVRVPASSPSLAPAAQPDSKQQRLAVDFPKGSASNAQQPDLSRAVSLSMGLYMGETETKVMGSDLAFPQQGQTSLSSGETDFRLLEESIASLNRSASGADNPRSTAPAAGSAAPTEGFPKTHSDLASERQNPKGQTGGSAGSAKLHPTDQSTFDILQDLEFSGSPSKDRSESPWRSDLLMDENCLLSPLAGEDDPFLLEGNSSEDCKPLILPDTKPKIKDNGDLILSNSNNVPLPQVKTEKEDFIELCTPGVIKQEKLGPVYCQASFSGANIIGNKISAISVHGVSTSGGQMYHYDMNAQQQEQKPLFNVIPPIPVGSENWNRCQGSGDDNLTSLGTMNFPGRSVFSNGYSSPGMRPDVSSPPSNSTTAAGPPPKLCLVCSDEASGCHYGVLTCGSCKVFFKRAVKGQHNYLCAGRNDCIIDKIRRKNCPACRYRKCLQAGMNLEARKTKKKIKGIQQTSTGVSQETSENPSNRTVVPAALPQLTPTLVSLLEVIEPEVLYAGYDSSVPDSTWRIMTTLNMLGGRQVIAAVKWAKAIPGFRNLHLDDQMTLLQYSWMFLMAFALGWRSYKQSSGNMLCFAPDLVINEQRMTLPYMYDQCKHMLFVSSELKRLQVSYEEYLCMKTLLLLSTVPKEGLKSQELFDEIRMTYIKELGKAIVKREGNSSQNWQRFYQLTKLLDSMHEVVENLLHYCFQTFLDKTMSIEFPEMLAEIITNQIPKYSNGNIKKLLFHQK

[4] = system: pregnancy (number and condition of conceptuses); test: Postcoital test; type: in vivo, rat; details: rat, days 4-6 subcu
[5] = system: progesterone-induced endometrial proliferation; test: AntiClauberg test; type: in vivo, rabbit; details: Table 2, CDB-2914 = 100 (assigned)
How it was run: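 Immature NZW rabbits were estradiol-primed s.c. for 6 days, then given progesterone 0.8 mg/day s.c. plus compound orally or s.c. for 5 days. Uteri were sectioned and H&E-scored for endometrial glandular proliferation (McPhail). Percent inhibition was calculated per dose versus progesterone-only animals.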

**Q.** How did the “ANTIPROGESTATIONAL Anti-McGinty” value [1] turn out when CCC(=O)[C@@]1(OC(C)=O)CCC2C3CCC4=CC(=O)CCC4=C3C(c3ccc(N(C)C)cc3)C[C@@]21C (stereo partly drawn) [Compound 28, 17α-acetoxy-21-methyl-11β-[4-(N,N-dimethylamino)phenyl]-19-norpregna-4,9-diene-3,20-dione] was run?
**A.** The value was 32.

**Q.** And the “RELATIVE BINDING AFFINITY Progesterone” value [2]?
**A.** The value was 129%.

**Q.** What about the “binding affinities compared with the standard, compound 69B” value [2] of the same compound?
**A.** Its value is “binding affinities greater than that observed for the standard”.

**Q.** What about the “RELATIVE BINDING AFFINITY Glucocorticoid” value [3] of the same compound?
**A.** The value was 126%.

**Q.** For CC(=O)O[C@]1(C(=O)CSC(C)=O)CC[C@H]2[C@@H]3CCC4=CC(=O)CCC4=C3[C@@H](c3ccc(N(C)C)cc3)C[C@@]21C [Compound 17, 17α-acetoxy-21-acetylthio-11β-[4-(N,N-dimethylamino)phenyl]-19-norpregna-4,9-diene-3,20-dione], which “ANTIPROGESTATIONAL Anti-McGinty” value [1] is on record?
**A.** The value was 65.

**Q.** And the “RELATIVE BINDING AFFINITY Progesterone” value [2]?
**A.** The value was 37%.

**Q.** And the “RELATIVE BINDING AFFINITY Glucocorticoid” value [3]?
**A.** The value was 54%.

**Q.** Which “antiprogestational activity compared with the lead compound / standard, in words” value ([1]; antiMcGinty (and antiClauberg), versus CDB-2914 (69B)) does the source give for CC(=O)O[C@]1(C(=O)CBr)CCC2C3CCC4=CC(=O)CCC4=C3C(c3ccc(N(C)C)cc3)C[C@@]21C (stereo partly drawn) [Compound 14B, 17α-acetoxy-21-bromo-11β-[4-(N,N-dimethylamino)phenyl]-19-norpregna-4,9-diene-3,20-dione] here?
**A.** The value was “did not show significant differences”.

**Q.** And the “ANTIPROGESTATIONAL Anti-McGinty” value [1]?
**A.** The value was 71.

**Q.** What about the “RELATIVE BINDING AFFINITY Progesterone” value [2] of the same compound?
**A.** Its value is 130%.

**Q.** And the “binding affinities compared with the standard, compound 69B” value [2]?
**A.** Its value is “binding affinities greater than that observed for the standard”.

**Q.** What about the “binding affinity for the progesterone receptor, in words” value ([2]; rabbit uterine, versus CDB-2914 (69B) where stated) of the same compound?
**A.** The value was “did not show significant differences”.

**Q.** What about the “RELATIVE BINDING AFFINITY Glucocorticoid” value [3] of the same compound?
**A.** The value was 175%.

**Q.** How did the “Postcoital MED100 (*)” value [4] turn out when CCC(=O)OC1(C(C)=O)CCC2C3CCC4=CC(=O)CCC4=C3C(c3ccc(N(C)C)cc3)CC21C (stereo not drawn) [Compound 69C, 17α-Propionoxy-11β-[4-(N,N-dimethylamino)phenyl]-19-norpregna-4,9-diene-3,20-dione] was run?
**A.** Its value is 2* mg/day.

**Q.** And the “BINDING AFFINITY Progester” value [2]?
**A.** The value was 91%.

**Q.** What about the “BINDING AFFINITY Glucocortic” value [3] of the same compound?
**A.** The value was 49%.

**Q.** And the “BIOLOGICAL ACTIVITY antiClauberg” value ([5]; oral)?
**A.** Its value is “˜10”.

**Q.** Which “Postcoital MED100 (*)” value [4] does the source give for CCCCCCC(=O)O[C@]1(C(C)=O)CC[C@H]2[C@@H]3CCC4=CC(=O)CCC4=C3[C@@H](c3ccc(N(C)C)cc3)C[C@@]21C [Compound 69D, 17α-Heptanoyloxy-11β-[4-(N,N-dimethylamino)phenyl]-19-norpregna-4,9-diene-3,20-dione] here?
**A.** Its value is “inac-”.

**Q.** And the “BINDING AFFINITY Progester” value [2]?
**A.** The value was 40%.

**Q.** What about the “BINDING AFFINITY Glucocortic” value [3] of the same compound?
**A.** The value was 89%.

**Q.** And the “BIOLOGICAL ACTIVITY antiClauberg (subcu)” value ([5]; subcutaneous)?
**A.** The value was “weak”.
